For 29 compounds, EC50 and Ki results are on record in patent publication US20260125375A1 (Pfizer Inc., priority 2022, published 2026).

The EC50 is the concentration at which the effect is half-maximal. As usually defined, the Ki is the dissociation constant of the complex between target and ligand, obtained from inhibition or displacement.

Like-named read-outs stand apart in the source and are kept apart here.

One assay addresses T1, CBL-B (Homo sapiens, UniProt Q13191).
T1 construct: endogenous in cells; host or cells: Jurkat HiBit-IL2 reporter cells, C-CBL knocked out by CRISPR
The experiment in a line: Jurkat HiBit-IL2 assay (c-CBL KO), reporter cell line expressing CBL-B only. Type of assay: cell-based. The conditions noted are these: geometric mean, read-out: C-CBL KO EC50 (nM) GMean. The method in brief:
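CRISPR knockout Jurkat HiBit-IL2 reporter cells (20,000/well) were preincubated 1 h with compounds (0.1% DMSO), then stimulated 4 h at 37 °C with anti-CD3 (1 μg/ml) and anti-CD28 (2 μg/ml) final. IL-2 was read by HiBiT lytic luminescence, normalized as fold over antibody-only baseline; EC50 reported as geometric mean.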

The target of the next assay is T2, C-CBL (residues 46-435) (Homo sapiens, UniProt P22681).
T2 construct: Purified CBL-B (residues 36-427) and C-CBL (residues 46-435) proteins from baculovirus-infected insect cells; made in house; host or cells: baculovirus-infected insect cells
T2 sequence (P22681 46-435): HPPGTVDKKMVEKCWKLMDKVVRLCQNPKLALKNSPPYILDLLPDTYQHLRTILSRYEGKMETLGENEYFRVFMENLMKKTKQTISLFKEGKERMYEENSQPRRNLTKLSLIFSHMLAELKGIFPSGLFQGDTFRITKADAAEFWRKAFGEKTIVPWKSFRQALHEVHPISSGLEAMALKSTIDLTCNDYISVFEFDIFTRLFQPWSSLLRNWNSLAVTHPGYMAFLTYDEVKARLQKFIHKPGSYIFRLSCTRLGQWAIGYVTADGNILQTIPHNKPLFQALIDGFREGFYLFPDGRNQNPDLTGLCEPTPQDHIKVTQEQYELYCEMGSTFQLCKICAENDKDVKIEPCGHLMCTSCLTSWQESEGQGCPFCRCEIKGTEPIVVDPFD
In words: Ligand Displacement Assay (LDA), HTRF competitive binding against BODIPY-labeled fluorescent tracer, C-CBL. Particulars: geometric mean of the number of tests, read-out: C-CBL Ki (nM) GMean. The gist of the method:
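Ki values, given as geometric means of repeated tests, come from TR-FRET displacement of a BODIPY-labelled tracer from terbium-streptavidin-bound, AviTag-biotinylated protein made in baculovirus-infected insect cells. Compounds ran as three-fold dilutions in duplicate, […], 2% DMSO.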
(TR-FRET usually uses a lanthanide donor and a delayed reading to cut background.)

[1] abbreviates: c-CBL KO (CBL-B only), anti-CD3/anti-CD28 stimulation 4 hours, Table 16a.
The mark [2] stands for this setting: C-CBL KO (expressing CBL-B only), Table 16b (further repetition).

As to `CC(c1nc(C(F)(F)F)cc2c(-c3cccc(C4(Cc5nncn5C)COC4)c3)n[nH]c12)N1CCC[C@H](C)C1` (single isomer, unassigned) [Example C19], the EC50 on CBL-B (setting [1]) was 56 nM. The Ki at C-CBL (residues 46-435) is 61.3 nM.

Turning to `C[C@@H](c1nc(C(F)(F)F)cc2c(-c3cccc(C4(Cc5nncn5C)COC4)c3)n[nH]c12)N1CCC(F)(F)C1` (single isomer, unassigned) [Example D5], the half-maximal effective concentration (EC50) on CBL-B (setting [1]) is 650 nM. Moreover, the Ki on C-CBL (residues 46-435) came to 148 nM.

`C[C@H](c1nc(C(F)(F)F)cc2c(-c3cccc(C4(Cc5nncn5C)COC4)c3)n[nH]c12)N1C[C@H](F)[C@@H](F)C1` (single isomer, unassigned) [Example D8]: at CBL-B (setting [1]), the EC50 came to 603 nM. For the same compound, the Ki on C-CBL (residues 46-435) came out at 113 nM.

`C[C@H](NC1CC[C@H]1O)c1nc(C(F)(F)F)cc2c(-c3cccc([C@H](c4nncn4C)C4CCC4)c3)n[nH]c12` (single isomer, unassigned) [Example D30]: the EC50 at CBL-B (setting [2]) came out at 10 nM; on CBL-B (setting [1]), 3 nM. Moreover, on C-CBL (residues 46-435), the Ki stood at 5.1 nM.

Consider `C[C@H](NC1CCC1)c1nc(C(F)(F)F)cc2c(-c3cccc(C4(Cc5nncn5C)COC4)c3)n[nH]c12` [Example F1, N-{(1S)-1-[3-(3-{3-[(4-methyl-4H-1,2,4-triazol-3-yl)methyl]oxetan-3-yl}phenyl)-5-(trifluoromethyl)-1H-pyrazolo[3,4-c]pyridin-7-yl]ethyl}cyclobutanamine], for which the figures for the EC50 at CBL-B (setting [2]) and on CBL-B (setting [1]) were 15 nM and 8 nM, respectively. For the same compound, the Ki at C-CBL (residues 46-435) amounted to 7.3 nM.

On to `C[C@@H](N[C@H]1C[C@@H](F)C1)c1nc(C(F)(F)F)cc2c(-c3cccc([C@H](c4nncn4C)C4CCC4)c3)n[nH]c12` (single isomer, unassigned) [Example C96], for which the EC50 on CBL-B (setting [2]) turned out to be 76 nM. Moreover, the Ki at C-CBL (residues 46-435) is 53.5 nM.

Regarding `C[C@H](c1nc(C(F)(F)F)cc2c(-c3cccc(C4(Cc5nncn5C)COC4)c3)n[nH]c12)N1C[C@@H](F)[C@H](F)C1` (single isomer, unassigned) [Example C26], the EC50 at CBL-B (setting [1]) is 172 nM. The Ki on C-CBL (residues 46-435) is 198 nM.

On to `C[C@H](N[C@@H]1CCOC1)c1nc(C(F)(F)F)cc2c(-c3cccc([C@H](c4nncn4C)C4CCC4)c3)n[nH]c12` (single isomer, unassigned) [Example D2], for which the EC50 came to 83 nM at CBL-B (setting [2]) and 42 nM on CBL-B (setting [1]). At C-CBL (residues 46-435), the Ki amounted to 77.1 nM.

Take `C[C@@H](N[C@H]1C[C@@H](O)C1)c1nc(C(F)(F)F)cc2c(-c3cccc([C@H](c4nncn4C)C4CCC4)c3)n[nH]c12` (single isomer, unassigned) [Example C37]: the EC50 on CBL-B (setting [1]) was 173 nM. The Ki on C-CBL (residues 46-435) turned out to be 50.6 nM.

Consider `C[C@H](N[C@H]1CCC[C@@H]1O)c1nc(C(F)(F)F)cc2c(-c3cccc([C@H](c4nncn4C)C4CCC4)c3)n[nH]c12` (single isomer, unassigned) [Example C47], for which the EC50 on CBL-B (setting [2]) was found to be 11 nM; at CBL-B (setting [1]), 5 nM. Further, the Ki at C-CBL (residues 46-435) was determined as 5 nM.

Take `CC(c1nc(C(F)(F)F)cc2c(-c3cccc(C4(Cc5nncn5C)COC4)c3)n[nH]c12)N1CCOCC1` (single isomer, unassigned) [Example C24, 3-(3-{3-[(4-methyl-4H-1,2,4-triazol-3-yl)methyl]oxetan-3-yl}phenyl)-7-[(1ξ)-1-(morpholin-4-yl)ethyl]-5-(trifluoromethyl)-1H-pyrazolo[3,4-c]pyridine]: on CBL-B (setting [1]), the EC50 amounted to 434 nM. For the same compound, at C-CBL (residues 46-435), the Ki was found to be 134 nM.

Take `C[C@H](N[C@H]1C[C@@H](F)C1)c1nc(C(F)(F)F)cc2c(-c3cccc([C@H](c4nncn4C)C4CCC4)c3)n[nH]c12` (single isomer, unassigned) [Example C95]: at CBL-B (setting [2]), the EC50 amounted to 53 nM. At C-CBL (residues 46-435), the Ki is 28 nM.

In the case of `Cn1cnnc1[C@@H](c1cccc(-c2n[nH]c3c(CN[C@H]4CCOC4)nc(C(F)(F)F)cc23)c1)C1CCC1` [Example D1, (3S)—N-{[3-{3-[(R)-cyclobutyl(4-methyl-4H-1,2,4-triazol-3-yl)methyl]phenyl}-5-(trifluoromethyl)-1H-pyrazolo[3,4-c]pyridin-7-yl]methyl}oxolan-3-amine], the EC50 at CBL-B (setting [1]) came out at 276 nM. Further, the inhibitory constant (Ki) on C-CBL (residues 46-435) was found to be 210 nM.

On to `Cn1cnnc1CC1(c2cccc(-c3n[nH]c4c(CN5CCCCC5)nc(C(F)(F)F)cc34)c2)COC1` [Example C33, 3-(3-{3-[(4-methyl-4H-1,2,4-triazol-3-yl)methyl]oxetan-3-yl}phenyl)-7-[(piperidin-1-yl)methyl]-5-(trifluoromethyl)-1H-pyrazolo[3,4-c]pyridine], for which the EC50 on CBL-B (setting [1]) was 116 nM. Moreover, at C-CBL (residues 46-435), the Ki is 111 nM.

As to `C[C@@H](NC1CCC1)c1nc(C(F)(F)F)cc2c(-c3cccc(C4(Cc5nncn5C)COC4)c3)n[nH]c12` [Example C16], the EC50 at CBL-B (setting [1]) turned out to be 75 nM. Further, the inhibitory constant (Ki) at C-CBL (residues 46-435) was 49.3 nM.

Regarding `C[C@@H](c1nc(C(F)(F)F)cc2c(-c3cccc(C4(Cc5nncn5C)COC4)c3)n[nH]c12)N1C[C@H](F)[C@@H](F)C1` (single isomer, unassigned) [Example D7], the EC50 at CBL-B (setting [1]) was 80 nM. On C-CBL (residues 46-435), the Ki stood at 28.1 nM.

As for `CC(C)NC(C)c1nc(C(F)(F)F)cc2c(-c3cccc([C@H](c4nncn4C)C4CCC4)c3)n[nH]c12` (single isomer, unassigned) [Example C34], the EC50 on CBL-B (setting [2]) is 86 nM; on CBL-B (setting [1]) it was 67 nM. Also, the Ki on C-CBL (residues 46-435) was 88.5 nM.

Turning to `CC(c1nc(C(F)(F)F)cc2c(-c3cccc(C4(Cc5nncn5C)COC4)c3)n[nH]c12)N1CCOCC1` (single isomer, unassigned) [Example C23, 3-(3-{3-[(4-methyl-4H-1,2,4-triazol-3-yl)methyl]oxetan-3-yl}phenyl)-7-[(1ξ)-1-(morpholin-4-yl)ethyl]-5-(trifluoromethyl)-1H-pyrazolo[3,4-c]pyridine], on CBL-B (setting [1]), the EC50 was 152 nM. The Ki on C-CBL (residues 46-435) was 24.8 nM.

Regarding `C[C@@H]1CCCN([C@H](C)c2nc(C(F)(F)F)cc3c(-c4cccc(C5(Cc6nncn6C)COC5)c4)n[nH]c23)C1` (single isomer, unassigned) [Example D14], the EC50 at CBL-B (setting [1]) stood at 354 nM. The Ki on C-CBL (residues 46-435) turned out to be 183 nM.

Consider `CC(c1nc(C(F)(F)F)cc2c(-c3cccc(C4(Cc5nncn5C)COC4)c3)n[nH]c12)N1CCC[C@H](C)C1` (single isomer, unassigned) [Example C20], for which the EC50 came to 15 nM at CBL-B (setting [2]) and 12 nM on CBL-B (setting [1]). Besides, the Ki on C-CBL (residues 46-435) is 16.9 nM.

As for `CC(C)NC(C)c1nc(C(F)(F)F)cc2c(-c3cccc([C@H](c4nncn4C)C4CCC4)c3)n[nH]c12` (single isomer, unassigned) [Example C35], the EC50 on CBL-B (setting [1]) was determined as 15 nM. Moreover, the Ki at C-CBL (residues 46-435) worked out at 29.1 nM.

Consider `CCNC(C)c1nc(C(F)(F)F)cc2c(-c3cccc([C@H](c4nncn4C)C4CCC4)c3)n[nH]c12` (single isomer, unassigned) [Example C89], for which the EC50 at CBL-B (setting [2]) stood at 85 nM. Moreover, the Ki at C-CBL (residues 46-435) was 105 nM.

As to `C[C@H](N)c1nc(C(F)(F)F)cc2c(-c3cccc([C@H](c4nncn4C)C4CCC4)c3)n[nH]c12` [Example K12, (1S)-1-[3-{3-[(R)-cyclobutyl(4-methyl-4H-1,2,4-triazol-3-yl)methyl]phenyl}-5-(trifluoromethyl)-1H-pyrazolo[3,4-c]pyridin-7-yl]ethan-1-amine], on CBL-B (setting [2]), the half-maximal effective concentration (EC50) was determined as 895 nM. On C-CBL (residues 46-435), the Ki was found to be 136 nM.

Consider `C[C@@H](NC1CCCC1)c1nc(C(F)(F)F)cc2c(-c3cccc(C4(Cc5nncn5C)COC4)c3)n[nH]c12` (single isomer, unassigned) [Example C15], for which, at CBL-B (setting [1]), the EC50 was 43 nM. For the same compound, at C-CBL (residues 46-435), the Ki came out at 42.1 nM.

Take `C[C@H](c1nc(C(F)(F)F)cc2c(-c3cccc(C4(Cc5nncn5C)COC4)c3)n[nH]c12)N1CCC(F)(F)C1` (single isomer, unassigned) [Example D6]: at CBL-B (setting [1]), the EC50 was 64 nM. In addition, the Ki at C-CBL (residues 46-435) was 21 nM.

On to `Cn1cnnc1[C@@H](c1cccc(-c2n[nH]c3c(CN[C@H]4CCC(F)(F)C4)nc(C(F)(F)F)cc23)c1)C1CCC1` (single isomer, unassigned) [Example G1], for which the EC50 at CBL-B (setting [1]) was found to be 70 nM. Further, the Ki on C-CBL (residues 46-435) came out at 118 nM.

In the case of `C[C@H](NC1CC(F)(F)C1)c1nc(C(F)(F)F)cc2c(-c3cccc([C@H](c4nncn4C)C4CCC4)c3)n[nH]c12` (single isomer, unassigned) [Example D90], on CBL-B (setting [2]), the EC50 turned out to be 73 nM. On C-CBL (residues 46-435), the Ki came out at 147 nM.

In the case of `C[C@H](c1nc(C(F)(F)F)cc2c(-c3cccc(C4(Cc5nncn5C)COC4)c3)n[nH]c12)N1CC[C@@H](F)C1` (single isomer, unassigned) [Example D10], the EC50 on CBL-B (setting [1]) came out at 102 nM. The Ki at C-CBL (residues 46-435) was determined as 25 nM.

In the case of `CC(c1nc(C(F)(F)F)cc2c(-c3cccc(C4(Cc5nncn5C)COC4)c3)n[nH]c12)N1C[C@@H](F)[C@H](F)C1` (single isomer, unassigned) [Example C25], on CBL-B (setting [1]), the EC50 turned out to be 49 nM. Also, the Ki on C-CBL (residues 46-435) was determined as 33.1 nM.
